This is an account of results in EP0129409B1, “Thiazolo - and thiazinobenzimidazoles” (JOHN WYETH & BROTHER LIMITED, priority 1983, dated 1984).

Read-outs that look alike come from different tables or passages of the source.

Broadly, the Inhibition is the change of the read-out against control, counted positive when it falls. A lower Inhibition goes with a response near the control. Broadly, the inhibition is the drop in the measured response relative to a control, in per cent.

The nature of assay [1]: antisecretory activity, test of Shay, Sun and Gruenstein. The following applies: in vivo.
A further assay addresses T1, H⁺/K⁺ ATPase (Oryctolagus cuniculus, UniProt P27112).
T1 construct: Rabbit gastric glands are isolated from gastric mucosa from the corpus region of the stomach; from tissue; host or cells: rabbit isolated gastric glands (gastric mucosa, corpus region of the stomach)
As to the kind of experiment: inhibition of 14C-aminopyrine uptake in rabbit isolated gastric glands stimulated by DBcAMP or high K+. The note with it: % inhibition of the maximum response to the secretagogue; for inhibition at 10 µM: at 10⁻⁵M. The assay is classed as cell-based. The procedure: Compounds of formula I were also tested for anti-secretory activity by their ability to inhibit the highly specific proton transporting enzyme H⁺/K⁺ ATPase.
Potential H⁺/K⁺ ATPase inhibitors were evaluated by a technique involving the measurement of aminopyrine accumulation in rabbit isolated gastric glands. Aminopyrine accumulates in acid-secreting cells; therefore, uptake of aminopyrine is increased by secretagogues and an inhibitor of acid secretion will reduce the response to one or more secretagogues depending upon its site of action. […] The following test procedure is used: Rabbit gastric glands are isolated from gastric mucosa from the corpus region of the stomach by a method based on one described by Berglindh T., Obrink K.J., Acta Physiol. Scand.
Results are expressed as the % inhibition of the maximum response to the secretagogue induced by the test compound. An inhibitor of H⁺/K⁺ ATPase would be expected to reduce the response to both secretagogues.

A further assay relates to stress-induced erosion. In words: stress-induced erosion test of Senay and Levine (anti-ulcer activity). The class given is in vivo. The note with it: decrease in ulcer formation as percentage of control score, rats, oral. The procedure:
Anti-ulcer activity was determined by the stress-induced erosion test of Senay and Levine, Proc. Soc. Exp. Biol. Med., 124, 1221-3 (1967). The procedure used was as follows.
Male rats, weighing between 80 and 120 gms. were fasted overnight with water ad lib. The rats were then divided into groups of six and dosed orally with the test drug in the form of a solution or with the vehicle alone, 0.5% carboxymethylcellulose, in a volume of 10ml/kg.
After 30 minutes the rats were inserted into aluminium restraining tubes measuring 1⁵/₈ inches in diameter by 5 inches and placed in the cold (4±1°C) for 3 hours. Immediately after cold exposure the rats were killed with intracranial alcohol and their stomachs excised and opened along the greater curvature. Each stomach was washed gently free of contents with warm tap water and pinned out on a board. The condition of the gastric mucosa was then scored from 0 to 6 on the following scale:
The maximum possible score for each animal was 6 and for the group 36. Decrease in ulcer formation was calculated as a percentage of the control score, i.e. [formula] The statistical significance of the effect is assessed by Student's t-test.

[2] abbreviates: at 10⁻⁴M, read-out: % Inhibition to stimulation by: DBcAMP.
Where [3] appears, read: at 10⁻⁴M, read-out: % Inhibition to stimulation by: K⁺.

T1 sequence (P27112 whole entry): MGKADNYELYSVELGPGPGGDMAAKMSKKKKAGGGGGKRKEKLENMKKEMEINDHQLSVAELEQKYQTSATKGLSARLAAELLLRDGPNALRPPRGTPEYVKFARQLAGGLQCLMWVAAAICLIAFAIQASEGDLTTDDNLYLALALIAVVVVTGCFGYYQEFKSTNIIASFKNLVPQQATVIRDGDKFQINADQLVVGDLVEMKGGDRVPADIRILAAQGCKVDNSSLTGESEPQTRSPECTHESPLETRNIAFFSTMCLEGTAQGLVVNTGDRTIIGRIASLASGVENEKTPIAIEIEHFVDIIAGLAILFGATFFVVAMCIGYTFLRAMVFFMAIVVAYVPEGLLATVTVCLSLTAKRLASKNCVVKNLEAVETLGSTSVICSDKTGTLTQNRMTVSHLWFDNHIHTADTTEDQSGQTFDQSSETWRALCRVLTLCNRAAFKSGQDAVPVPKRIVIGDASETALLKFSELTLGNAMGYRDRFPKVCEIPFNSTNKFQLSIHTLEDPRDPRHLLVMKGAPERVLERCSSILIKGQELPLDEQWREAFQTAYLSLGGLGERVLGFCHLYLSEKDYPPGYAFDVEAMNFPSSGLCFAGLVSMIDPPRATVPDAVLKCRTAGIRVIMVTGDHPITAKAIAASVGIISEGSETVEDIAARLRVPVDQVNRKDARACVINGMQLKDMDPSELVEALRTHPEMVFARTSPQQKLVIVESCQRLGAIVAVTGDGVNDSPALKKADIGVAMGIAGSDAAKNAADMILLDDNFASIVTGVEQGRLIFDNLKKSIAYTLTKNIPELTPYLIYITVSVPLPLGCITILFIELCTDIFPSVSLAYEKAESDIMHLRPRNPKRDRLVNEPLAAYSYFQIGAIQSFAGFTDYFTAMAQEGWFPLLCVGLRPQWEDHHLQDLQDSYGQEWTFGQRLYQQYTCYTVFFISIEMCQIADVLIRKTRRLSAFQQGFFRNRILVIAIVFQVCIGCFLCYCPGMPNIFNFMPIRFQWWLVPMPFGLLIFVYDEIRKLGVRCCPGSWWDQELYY
T1 sequence (P18597 whole entry partner): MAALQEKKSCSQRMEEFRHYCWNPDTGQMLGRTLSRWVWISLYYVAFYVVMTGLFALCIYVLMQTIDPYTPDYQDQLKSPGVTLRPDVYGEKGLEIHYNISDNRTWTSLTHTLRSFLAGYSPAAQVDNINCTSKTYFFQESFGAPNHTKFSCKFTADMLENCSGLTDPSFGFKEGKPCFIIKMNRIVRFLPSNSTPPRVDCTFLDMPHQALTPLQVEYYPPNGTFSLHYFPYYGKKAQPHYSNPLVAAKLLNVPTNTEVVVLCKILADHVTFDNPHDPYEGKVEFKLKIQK

In the case of “2,3-Dihydro-6-methyl-2-(2-pyridyl)thiazolo[3,2-a]-benzimidazole and 2,3-Dihydro-7-methyl-2-(2-pyridyl)-thiazolo [3,2-a]benzimidazole [Example 7]”, in assay [1], the Antisecretory activity result is recorded as “particularly active”.

With “2,3-Dihydro-6-methyl-2-(2-pyridyl)thiazolo[3,2-a]-benzimidazole-1-oxide and 2,3-Dihydro-7-methyl-2-(2-pyridyl)thiazolo[3,2-a]benzimidazole-1-oxide [Example 10]”, the Antisecretory activity result in assay [1] was “particularly active”.

For the molecule “6-Chloro-2,3-dihydro-2-(2-pyridyl)thiazolo[3,2-a]-benzimidazole-1-oxide and 7-chloro-2,3-dihydro-2-(2-pyridyl)-thiazolo[3,2-a]benzimidazole-1-oxide [Example 18]”, in assay [1], the Antisecretory activity result is given as “particularly active”.

For “6-Ethoxy-2-(2-pyridyl)thiazolo[3,2-a]-benzimidazole and 7-ethoxy-2-(2-pyridyl)thiazolo[3,2-a]benzimidazole [Example 24]”, at H⁺/K⁺ ATPase (at 10⁻⁴M, 100 µM), the “% Inhibition to stimulation by: DBcAMP” value was determined as 68% at 10⁻⁴M and the “% Inhibition to stimulation by: K⁺” value stood at 162% at 10⁻⁴M.

Take `c1ccc(C2Cn3c(nc4ccccc43)S2)nc1` (centres unmarked) [Example 1, 2,3-Dihydro-2-(2-pyridyl)thiazolo[3,2-a]benzimidazole]: the figures for the Inhibition in the assay on stress-induced erosion (Dose 30 mg/kg) and in the assay with stress-induced erosion (Dose 100 mg/kg) were 86% and 75%, respectively. In assay [1], the Antisecretory activity result is given as “particularly active”.

In the case of `[O-][S+]1c2nc3ccccc3n2CC1c1ccccn1` (centres unmarked) [Example 2, 2,3-Dihydro-2-(2-pyridyl)thiazolo[3,2-a]benzimidazole-1-oxide], the Antisecretory activity entry in assay [1] was “particularly active”. The inhibition at 100 µM was 74% on H⁺/K⁺ ATPase (setting [2]) and 91% at H⁺/K⁺ ATPase (setting [3]). Further, the inhibition at 10 µM on H⁺/K⁺ ATPase (read-out: % Inhibition to stimulation by: DBcAMP) turned out to be 73%; on H⁺/K⁺ ATPase (read-out: % Inhibition to stimulation by: K⁺), 26%.

For the molecule `c1ccc(C2Cn3c(nc4ccccc43)S2)cc1` (centres unmarked) [Example 3, 2,3-Dihydro-2-phenylthiazolo[3,2-a]benzimidazole], the Inhibition in the assay on stress-induced erosion (Dose 100 mg/kg) was determined as 74%.

With `Cc1ccc(C2Cn3c(nc4cc(Cl)c(Cl)cc43)S2)cn1` (centres unmarked) [Example 6, 6,7-Dichloro-2,3-dihydro-2-(6-methylpyrid-3-yl)thiazolo-[3,2-a]benzimidazole], the inhibition at 100 µM at H⁺/K⁺ ATPase (setting [2]) was 90%; at H⁺/K⁺ ATPase (setting [3]), 187%.

`Clc1cc2nc3n(c2cc1Cl)CC(c1ccccn1)S3` (centres unmarked) [Example 8, 6,7-Dichloro-2,3-dihydro-2-(2-pyridyl)thiazolo[3,2-a]-benzimidazole]: the inhibition at 100 µM on H⁺/K⁺ ATPase (setting [2]) was 50.5%.

For the molecule `Cc1cc2nc3n(c2cc1C)CC(c1ccccn1)S3` (centres unmarked) [Example 9, 2,3-Dihydro-6,7-dimethyl-2-(2-pyridyl)thiazolo[3,2-a]-benzimidazole], the Inhibition with stress-induced erosion (Dose 100 mg/kg) is listed as 82%. Also, in assay [1], the Antisecretory activity result is on record as “particularly active”.

With `Cc1cc2nc3n(c2cc1C)CC(c1ccccn1)[S+]3[O-]` (centres unmarked) [Example 13, 2,3-Dihydro-6,7-dimethyl-2-(2-pyridyl)thiazolo[3,2-a]-benzimidazole-1-oxide], the Antisecretory activity result in assay [1] is “particularly active”. For the same molecule, the inhibition at 100 µM on H⁺/K⁺ ATPase (setting [2]) amounted to 30%; at H⁺/K⁺ ATPase (setting [3]) it was 209%.

Turning to `CCc1ccc(-c2cn3c(nc4ccccc43)s2)nc1` [Example 27, 2-(2-(5-Ethylpyridyl))thiazolo[3,2-a]benzimidazole], the inhibition at 100 µM at H⁺/K⁺ ATPase (setting [2]) came out at 56%; on H⁺/K⁺ ATPase (setting [3]) it was 142%.

As to `c1ccc(-c2cccc(-c3cn4c(nc5ccccc54)s3)n2)cc1` [Example 37, 2-[2-(6-Phenylpyridyl)]thiazolo[3,2-a]benzimidazole], the inhibition at 100 µM on H⁺/K⁺ ATPase (setting [2]) amounted to 22%; on H⁺/K⁺ ATPase (setting [3]), 381%.
